From article PMC8245078, “Development of novel benzofuran-isatin conjugates as potential antiproliferative agents with apoptosis inducing mechanism in Colon cancer” (Journal of Enzyme Inhibition and Medicinal Chemistry, 2021)

Experiments:
[1] = tested on: HT-29 colorectal cancer cell line; experiment: MTT cell viability assay; type: cell-based, human; details: for inhibition of HT-29 cancer cells viability: 10 µM, 24 h, MTT
Procedure: (§1) In the present investigation a new set of benzofuran–isatin hybrids (5a–e and 7a–i) was synthesised to be evaluated for their potential anticancer activity towards two human colorectal cancer cell lines, SW-620 and HT-29. […] Both, SW-620 and HT-29 cells were treated with 10 µM of each compound for 24 h and the percent cell viability was calculated using MTT assay.
(§2) For this reason, compounds 5a and 5d were pursued for further studies. Starting with determination of IC50s and cytotoxic selectivity studies. Serial concentrations of compounds 5a and 5d were used to examine their impact on cell viability using MTT protocol. Results of concentration vs percent viability were charted, and the IC50 was calculated for SW-620 and HT-29 cell lines using Graph Pad prism 8 (Figure 4). […]
(§3) [(Ti-Tz)/Tz] x 100 for concentrations for which Ti<Tz […]
(§4) SW620 and HT29 colorectal cancer cell lines and HFF-1 fibroblast (ATCC, Rockville, USA) were used. HT29 cells were cultured and maintained in Dulbecco’s Modified Eagles Medium (DMEM) (GIBCO, by Thermo Fischer Scientific, NY, USA) supplemented with 10% fetal bovine serum (FBS), 100 units/mL penicillin, and 100 μg streptomycin. SW620 and HFF-1 cells were cultured in Roswell Park Memorial Institute medium (RPMI-1640) (GIBCO, by Thermo scientific, NY, USA) supplemented with 10% FBS and 1% penicillin and streptomycin (Napolitano et al., 2015). All cultures were incubated at 37 °C and humidified atmosphere of 5% […]
(§5) 2.3. Cell Viability Assay
(§6) The cytotoxicity effect of compounds on the colorectal cancer cell lines, SW620 and HT29 in addition to the normal human fibroblasts was measured by MTT (3-(4, 5-dimethylthiazol-2-yl)-2,5-diphenyltetrazolium bromide) (Sigma-Aldrich, St. Louis, MO, USA) as previously described. Briefly, cells were seeded in 96 well culture plates at 5000/well for HT29 and 10,000/well for SW620 for 24 h. Cells were then incubated with different compounds from WAG1 series (1-15) 24h at 37 °C and humidified 5% CO2 incubator. Freshly prepared 10 μl of 3-(4,5-dimethylthiazol-2-yl)-2,5-diphenyltetrazolium bromide (MTT 5 mM) solution were added to the cells and further incubated for 2 h. Thereafter, 100 μl of dimethyl sulfoxide (DMSO) were added in each well and the crystals were dissolved through careful pipetting. […]
VA, USA). The experiments were performed in triplicate for each condition. […]
(§7) The total protein concentration was evaluated by the colorimetric
(§8) Bradford protein assay (BIO-RAD inc, CA, USA) at 595 nm absorbance. Lysates were loaded in […]

[2] = tested on: SW-620 colorectal cancer cell line; experiment: MTT cell viability assay; type: cell-based, human; details: Homo sapiens, SW-620, SW-620, MTT
Procedure: as §1, §2, §3, §4, §5
as §6, with “pipetting. In certain experiment, cells were treated different concentration of 5FU for 72 h. The absorbance of the product was measured at 540 nm using a Synergy™ 2 multi-mode microplate reader (Biotech, VA, USA). The experiments were performed in triplicate for each condition.” for “pipetting.”
as §7, §8

Structure (SMILES)	inhibition of HT-29 cancer cells viability [1]	IC50 [2]	IC50 ([1]; Homo sapiens, HT-29, HT-29, MTT)
Cc1c(C(=O)N/N=C2\C(=O)N(Cc3ccccc3)c3ccc(Br)cc32)oc2ccccc12 [Compound 7h]	> 50%	–	–
Cc1c(C(=O)N/N=C2\C(=O)N(Cc3ccc(F)cc3)c3ccccc32)oc2ccccc12 [Compound 7e]	> 50%	–	–
CCc1c2c(nc3ccc(OC(=O)N4CCC(N5CCCCC5)CC4)cc13)-c1cc3c(c(=O)n1C2)COC(=O)[C@]3(O)CC [Irinotecan, reference compound]	–	1 µM	6.18 µM
Cc1c(C(=O)N/N=C2\C(=O)N(Cc3ccc(F)cc3)c3ccc(Br)cc32)oc2ccccc12 [Compound 7i]	> 50%	–	–
C=CCN1C(=O)/C(=N\NC(=O)c2oc3ccccc3c2C)c2ccccc21 [Compound 7c]	> 50%	–	–
